According to patent US20240301319A1, “PERFUMING COMPOSITIONS” (FIRMNICH SA, priority 2017, published 2024):

Assays:
[1] = Volatility of perfuming compounds (Tables 4 to 10), with top/middle/bottom note type; type: physicochemical
Protocol: In some aspects, the first perfume accord comprises perfuming compounds having a volatility ranging from 70,000 to 100 μg/l in air. In some aspects, perfuming compounds having a volatility ranging from 70,000 to 100 μg/l in air are referred to as “top notes”.
In some aspects, the second perfume accord comprises perfuming compounds having a volatility ranging from 99 to 50 μg/l in air. In some aspects, perfuming compounds having a volatility ranging from 99 to 50 μg/l in air are referred to as “middle notes”.
In some aspects, the third perfume accord comprises perfuming compounds having a volatility ranging from 49 to 0.1 μg/l in air. In some aspects, perfuming compounds having a volatility ranging from 49 to 0.1 μg/l in air are referred to as “bottom notes”.
Tables 4 to 10 describe top, middle and bottom note perfuming compounds for watery, green, fruity, citrus, sweet, gourmand and woody notes respectively.

[2] = Odor threshold and odor value of perfuming compounds (Tables 4 to 10)
[3] = Table 6, perfuming compounds having a fruity note
[4] = Table 6, perfuming compounds having a fruity note, note type by volatility
[5] = Table 7, citrus note, top, middle or bottom note
[6] = Table 7, citrus note, equals volatility divided by odor threshold
[7] = Table 9, perfuming compounds having a gourmand note, note type by volatility
[8] = Table 4, watery note, top, middle or bottom note
[9] = Table 4, watery note, equals volatility divided by odor threshold
[10] = Table 8, perfuming compounds having a sweet note
[11] = Table 8, perfuming compounds having a sweet note, note type by volatility
[12] = Table 10, perfuming compounds having a woody note, note type by volatility
[13] = note type (Top/Middle/Bottom) by volatility, perfuming compounds having a green note
[14] = perfuming compounds having a green note

## O=C1CCCCCCC/C=C/CCCCCCO1 [(10E)-oxacycloheptadec-10-en-2-one]
[1]; [3]
  Volatility: 0.74 μg/l air
[1]; [4]
  Type: Bottom
[1]; Table 7, citrus note
  Volatility (μg/l air): 0.74 μg/l air
[1]; [5]
  Type: Bottom
[2]; [3]
  Odor Threshold: 4.77E−04 μg/l air
  Odor Value: 1.55E+03
[2]; Table 7, citrus note
  Odor Threshold (μg/l air): 4.77E−04 μg/l air
[2]; [6]
  Odor Value: 1.55E+03

## O=Cc1ccc2c(c1)OCO2 [benzo[d][1,3]dioxole-5-carbaldehyde]
[1]; Table 9, gourmand note
  Volatility: 61.82 μg/l air
[1]; [7]
  Type: Middle
[2]; Table 9, gourmand note
  Odor Threshold: 1.01E−04 μg/l air

## CC(C=O)Cc1ccc(C(C)(C)C)cc1 (racemic) [(+−)-2-methyl-3-[4-(2-methyl-2-propanyl)phenyl]propanal]
[1]; Table 4, watery note
  Volatility (μg/l air): 12.86 μg/l air
[1]; [8]
  Type: bottom (perfuming compounds having a volatility ranging from 49 to 0.1 μg/l in air are referred to as “bottom notes”)
[2]; Table 4, watery note
  Odor Threshold (μg/l air): 2.39E−04 μg/l air
[2]; [9]
  Odor Value: 5.38E+04

## CC1=C(O)C(=O)CC1 [2-HYDROXY-3-METHYL-2-CYCLOPENTEN-1-ONE]
[1]; [10]
  Volatility: 396.50 μg/l air
[1]; [11]
  Type: Top
[2]; [10]
  Odor Threshold: 3.82E−04 μg/l air
  Odor Value: 1.04E+06

## CCCCCCOC(=O)CCCCC [HEXYL HEXANOATE]
[1]; [3]
  Volatility: 105.52 μg/l air
[1]; [4]
  Type: TOP (perfuming compounds having a volatility ranging from 70,000 to 100 μg/l in air are referred to as “top notes”)
[2]; [3]
  Odor Threshold: 9.98E−02 μg/l air
  Odor Value: 1.06E+03

## CCOc1ccc2ccccc2c1 [2-ETHOXYNAPHTHALENE]
[1]; Table 7, citrus note
  Volatility (μg/l air): 22.67 μg/l air
[1]; [5]
  Type: Bottom
[2]; Table 7, citrus note
  Odor Threshold (μg/l air): 3.57E−03 μg/l air
[2]; [6]
  Odor Value: 6.35E+03

## COc1cc(C=O)ccc1O [4-hydroxy-3-methoxybenzaldehyde]
[1]; [10]
  Volatility: 4.24 μg/l air
[1]; [11]
  Type: Bottom
[1]; Table 9, gourmand note
  Volatility: 4.24 μg/l air
[1]; [7]
  Type: Bottom
[2]; [10]
  Odor Threshold: 6.75E−06 μg/l air
  Odor Value: 6.28E+05
[2]; Table 9, gourmand note
  Odor Threshold: 6.75E−06 μg/l air

## COC(OC)C(C)(C)CC=C(C)C
[1]; [12]
  Type: Top
[1]; Table 10, woody note
  Volatility: 1311.32 μg/l air
[2]; Table 10, woody note
  Odor Threshold: 1.26E−02 μg/l air

## CCCCCC#CC(=O)OC [METHYL 2-OCTYNOATE″]
[1]; Table 4, watery note
  Volatility (μg/l air): 472.01 μg/l air
[1]; [8]
  Type: TOP (perfuming compounds having a volatility ranging from 70,000 to 100 μg/l in air are referred to as “top notes”)
[2]; Table 4, watery note
  Odor Threshold (μg/l air): 8.31E−04 μg/l air
[2]; [9]
  Odor Value: 5.68E+05

## CCC(O)COC1CCCCC1C(C)(C)C (racemic)
[1]; [12]
  Type: Top
[1]; Table 10, woody note
  Volatility: 205.05 μg/l air
[2]; Table 10, woody note
  Odor Threshold: 3.53E−02 μg/l air

## COc1ccc(C(C)=O)cc1 [1-(4-METHOXYPHENYL)-1-ETHANONE″]
[1]; [13]
  Type: Middle
[1]; [14]
  Volatility (μg/l air): 50.21 μg/l air
[2]; [14]
  Odor Threshold (μg/l air): 1.41E−04 μg/l air

## CCC/C=C/CO [(E)-2-HEXEN-1-OL]
[1]; [13]
  Type: Top
[1]; [14]
  Volatility (μg/l air): 3752.17 μg/l air
[2]; [14]
  Odor Threshold (μg/l air): 1.29E−01 μg/l air

## CC(=O)O[C@@H]1CC[C@@H]2C(C)(C)CCC[C@@]2(C)C1 (racemic)
[1]; [12]
  Type: Bottom
[1]; Table 10, woody note
  Volatility: 14.41 μg/l air
[2]; Table 10, woody note
  Odor Threshold: 4.19E−04 μg/l air

## COc1ccc(OC)c(C(C)(C)C)c1 [2-TERT-BUTYL-1,4-DIMETHOXYBENZENE]
[1]; [12]
  Type: Middle
[1]; Table 10, woody note
  Volatility: 82.95 μg/l air
[2]; Table 10, woody note
  Odor Threshold: 1.65E−02 μg/l air

## C=CC(C)(O)CCC=C(C)C (racemic) [(+−)-3,7-dimethyl-1,6-octadien-3-ol]
[1]; [3]
  Volatility: 896.72 μg/l air
[1]; [4]
  Type: TOP (perfuming compounds having a volatility ranging from 70,000 to 100 μg/l in air are referred to as “top notes”)
[1]; Table 7, citrus note
  Volatility (μg/l air): 896.72 μg/l air
[1]; [5]
  Type: Top
[2]; Table 7, citrus note
  Odor Threshold (μg/l air): 8.89E−05 μg/l air
[2]; [6]
  Odor Value: 1.01E+07

## CC1C(C)(C)C2=C(C(=O)CCC2)C1(C)C (stereo not drawn)
[1]; [12]
  Type: Bottom
[1]; Table 10, woody note
  Volatility: 29.81 μg/l air
[2]; Table 10, woody note
  Odor Threshold: 4.57E−03 μg/l air

## Cc1ncsc1CCO [2-(4-METHYL-1,3-THIAZOL-5-YL)-1-ETHANOL]
[1]; [10]
  Volatility: 2.36 μg/l air
[1]; [11]
  Type: Bottom
[2]; [10]
  Odor Threshold: 2.43E−04 μg/l air
  Odor Value: 9.71E+03
